Assay results as given in patent US20240415918A1, “Polypeptide and its use as a CCK receptor agonist/antagonist” (Centre for Regenerative Medicine & Health, Hong Kong …, priority 2021, published 2024).
Where a SMILES comes first, the peptide text is derived from it. [ ]: non-standard residue; d: D form.

Molecular target: T1, CCK-B receptors (CHO-CCK) (Homo sapiens, UniProt P32239)
T1 construct: expressed in transfected cells; host or cells: CHO (CHO-CCK model cells)
T1 sequence (P32239 1-447): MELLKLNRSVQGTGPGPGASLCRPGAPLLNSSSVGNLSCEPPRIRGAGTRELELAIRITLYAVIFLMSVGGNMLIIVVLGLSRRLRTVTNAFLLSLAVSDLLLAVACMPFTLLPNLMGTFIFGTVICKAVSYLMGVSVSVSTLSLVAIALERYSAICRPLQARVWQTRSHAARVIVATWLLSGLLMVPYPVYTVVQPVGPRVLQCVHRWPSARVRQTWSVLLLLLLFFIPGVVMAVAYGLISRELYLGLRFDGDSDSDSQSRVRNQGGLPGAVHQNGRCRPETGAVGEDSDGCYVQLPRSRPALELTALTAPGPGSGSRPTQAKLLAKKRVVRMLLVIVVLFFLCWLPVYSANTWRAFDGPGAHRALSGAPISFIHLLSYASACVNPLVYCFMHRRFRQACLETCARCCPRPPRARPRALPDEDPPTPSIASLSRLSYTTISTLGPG
Experiment: Calcium flux (Fluo-8) agonist test on CHO-CCK model cells
Type: cell-based
Details: for EC50: CHO-CCK cells, compound alone; for Agonistic Activity (%) at 10 μM: compound at 10 μM, percentage of signal of 20 nM CCK8 alone
Protocol: • To detect changes in intracellular calcium ion concentration after the compound acts on model cells containing CCK-B receptors (CHO-CCK).
• 1. The compound was formulated to a 10 mM mother liquor with DMSO, and then diluted into a series of 9 concentrations with a 3-fold gradient to form a 1000× stock solution.
2.1 Agonist • The compound stock solution was subjected to 200-fold dilution with HHBS buffer to form a 5× working solution.
• 1. Plate CHO-CCK cells in a 96-well plate with media containing 1% FBS, 30,000 cells/well/100 μL, and incubate overnight at 37° C. • 2. Prepare 1×Fluo-8 analysis buffer: mix 9 mL of HHBS, 1 mL of 10× Pluronic F127 Plus and 20 μL of Fluo-8 thoroughly for later use. • 3. Add Fluo-8 dye working solution to the cell plate, 100 μL/well. First incubate in a 37° C. incubator for 30 min, and then take it out and incubate at room temperature in the dark for 30 min. • 4. In the process of incubating cells, the compounds to be detected were prepared with HHBS. • 5.
The agonism/antagonism EC50 of the compound can be obtained by plotting the fitting curve with the agonism/antagonism percentage as Y-axis and the concentration of the compound as X-axis.

SMILES | EC50 (bound in μM) | Agonistic Activity (%) at 10 μM | EC50 (100% = 20 nM CCK8)
CSCC[C@H](NC(=O)[C@H](CC(=O)O)NC(=O)[C@@H](N)Cc1ccccc1)C(=O)N[C@@H](Cc1c[nH]c2ccccc12)C(=O)O [HT-1, Phe-Asp-Met-Trp-COOH] (H-FDMW-OH) | > 10 µM |  | 
CSCC[C@H](NC(=O)[C@H](CC(=O)O)NC(=O)[C@H](Cc1ccccc1)NC(C)=O)C(=O)N[C@@H](Cc1c[nH]c2ccccc12)C(=O)O [HT-2, Ac-Phe-Asp-Met-Trp-COOH] | > 10 µM |  | 
CSCC[C@H](NC(=O)[C@H](CC(=O)O)NC(=O)[C@H](Cc1ccccc1)NC(C)=O)C(=O)N[C@@H](Cc1c[nH]c2ccccc12)C(=O)O [HT-3, Ac-Phe-Asp-Met-Trp-NH2] | > 10 µM |  | 
CSCC[C@H](NC(=O)[C@@H](CC(=O)O)NC(=O)[C@H](Cc1ccccc1)NC(C)=O)C(=O)N[C@@H](Cc1c[nH]c2ccccc12)C(=O)O [HT-4, Ac-Phe-D-Asp-Met-Trp-NH2] | > 10 µM |  | 
CSCC[C@@H](NC(=O)[C@H](CC(=O)O)NC(=O)[C@H](Cc1ccccc1)NC(C)=O)C(=O)N[C@@H](Cc1c[nH]c2ccccc12)C(=O)O [HT-5, Ac-Phe-Asp-D-Met-Trp-NH2] | > 10 µM |  | 
CSCC[C@H](NC(=O)[C@H](CC(=O)O)NC(=O)[C@H](Cc1ccccc1)NC(C)=O)C(=O)N[C@H](Cc1c[nH]c2ccccc12)C(N)=O [HT-6, Ac-Phe-Asp-Met-D-Trp-NH2] (Ac-FDM[dW]-NH2) | > 10 µM |  | 
CSCC[C@@H](NC(=O)[C@@H](CC(=O)O)NC(=O)[C@H](N)Cc1ccccc1)C(=O)N[C@H](Cc1c[nH]c2ccccc12)C(=O)O [HT-7, D-Phe-D-Asp-D-Met-D-Trp-COOH] (H-[dF][dD][dM][dW]-OH) | > 10 µM |  | 
CSCC[C@@H](NC(=O)[C@@H](CC(=O)O)NC(=O)[C@@H](Cc1ccccc1)NC(C)=O)C(=O)N[C@H](Cc1c[nH]c2ccccc12)C(N)=O [HT-8, Ac-D-Phe-D-Asp-D-Met-D-Trp-NH2] (Ac-[dF][dD][dM][dW]-NH2) | > 10 µM |  | 
C[S+]([O-])CC[C@H](NC(=O)[C@H](N)Cc1c[nH]c2ccccc12)C(=O)N[C@@H](CC(=O)O)C(=O)N[C@@H](Cc1ccccc1)C(N)=O (stereo partly drawn) [HT-16, D-Trp-Met(O)-Asp-Phe-NH2] |  | 19.11% | 
COC(=O)C[C@H](NC(=O)[C@H](CCSC)NC(=O)[C@H](N)Cc1c[nH]c2ccccc12)C(=O)N[C@@H](Cc1ccccc1)C(N)=O [HT-18, D-Trp-Met-Asp(OMe)-Phe-NH2] |  | 7.59% | 
COC(=O)C[C@H](NC(=O)[C@H](CC[S+](C)[O-])NC(=O)[C@H](N)Cc1c[nH]c2ccccc12)C(=O)N[C@@H](Cc1ccccc1)C(N)=O (stereo partly drawn) [HT-20, D-Trp-Met(O)-Asp(OMe)-Phe-NH2] |  | −9.73% | 
CSCC[C@H](NC(=O)[C@H](N)Cc1c[nH]c2ccccc12)C(=O)N[C@@H](CC(=O)O)C(=O)N[C@@H](Cc1ccc(N=[N+]=[N-])cc1)C(N)=O [HT-31, D-Trp-Met-Asp-Phe(4-N3)-NH2] |  | 6.07% | 
C[S+]([O-])CC[C@H](NC(=O)[C@H](N)Cc1c[nH]c2ccccc12)C(=O)N[C@@H](CC(=O)O)C(=O)N[C@@H](Cc1ccccc1[N+](=O)[O-])C(N)=O (stereo partly drawn) [HT-41, D-Trp-Met(O)-Asp-Phe(2-NO2)-NH2] |  | −11.17% | 
C[S+]([O-])CC[C@H](NC(=O)[C@H](N)Cc1c[nH]c2ccccc12)C(=O)N[C@@H](CC(=O)O)C(=O)N[C@@H](Cc1ccc(N=[N+]=[N-])cc1)C(N)=O (stereo partly drawn) [HT-48, D-Trp-Met(O)-Asp-Phe(4-N3)-NH2] |  | 17.23% | 
C[S+]([O-])CC[C@H](NC(=O)[C@H](N)Cc1c[nH]c2ccccc12)C(=O)N[C@@H](CC(=O)O)C(=O)N[C@@H](Cc1ccc(C#N)cc1)C(N)=O (stereo partly drawn) [HT-49, D-Trp-Met(O)-Asp-Phe(4-CN)-NH2] |  | 1.03% | 
C[S+]([O-])CC[C@H](NC(=O)[C@H](N)Cc1c[nH]c2ccccc12)C(=O)N[C@@H](CC(=O)O)C(=O)N[C@@H](Cc1ccc([N+](=O)[O-])cc1)C(N)=O (stereo partly drawn) [HT-50, D-Trp-Met(O)-Asp-Phe(4-NO2)-NH2] |  | 11.85% | 
C[S+]([O-])CC[C@H](NC(=O)[C@H](N)Cc1c[nH]c2ccccc12)C(=O)N[C@@H](CC(=O)O)C(=O)N[C@@H](Cc1cc(F)cc(F)c1)C(N)=O (stereo partly drawn) [HT-56, D-Trp-Met(O)-Asp-Phe(3,5-DiF)-NH2] |  | 43.98% | 
C[S+]([O-])CC[C@H](NC(=O)[C@H](N)Cc1c[nH]c2ccccc12)C(=O)N[C@@H](CC(=O)O)C(=O)N[C@@H](Cc1cc(F)c(F)c(F)c1)C(N)=O (stereo partly drawn) [HT-57, D-Trp-Met(O)-Asp-Phe(3,4,5-TriF)-NH2] |  | 56.81% | 6.79 µM

Next, values leading:

EC50 (bound in μM) | Agonistic Activity (%) at 10 μM | EC50 (100% = 20 nM CCK8) | SMILES
 | 19.12% |  | CS(=O)(=O)CC[C@H](NC(=O)[C@H](N)Cc1c[nH]c2ccccc12)C(=O)N[C@@H](CC(=O)O)C(=O)N[C@@H](Cc1ccccc1)C(N)=O [HT-17, D-Trp-Met(O2)-Asp-Phe-NH2]
 | 0.98% |  | COC(=O)C[C@H](NC(=O)[C@H](CCS(C)(=O)=O)NC(=O)[C@H](N)Cc1c[nH]c2ccccc12)C(=O)N[C@@H](Cc1ccccc1)C(N)=O [HT-22, D-Trp-Met(O2)-Asp(OMe)-Phe-NH2]
 | 26.99% |  | Cc1ccc(C[C@H](NC(=O)[C@H](CC(=O)O)NC(=O)[C@H](CC[S+](C)[O-])NC(=O)[C@H](N)Cc2c[nH]c3ccccc23)C(N)=O)cc1 (stereo partly drawn) [HT-47, D-Trp-Met(O)-Asp-Phe(4-Me)-NH2]
 | 17.18% |  | C[S+]([O-])CC[C@H](NC(=O)[C@H](N)Cc1c[nH]c2ccccc12)C(=O)N[C@@H](CC(=O)O)C(=O)N[C@@H](Cc1ccc(Br)cc1)C(N)=O (stereo partly drawn) [HT-51, D-Trp-Met(O)-Asp-Phe(4-Br)-NH2]
 | 15.71% |  | C[S+]([O-])CC[C@H](NC(=O)[C@H](N)Cc1c[nH]c2ccccc12)C(=O)N[C@@H](CC(=O)O)C(=O)N[C@@H](Cc1ccc(Cl)cc1)C(N)=O (stereo partly drawn) [HT-52, D-Trp-Met(O)-Asp-Phe(4-Cl)-NH2]
 | 3.14% |  | C[S+]([O-])CC[C@H](NC(=O)[C@H](N)Cc1c[nH]c2ccccc12)C(=O)N[C@@H](CC(=O)O)C(=O)N[C@@H](Cc1ccc(I)cc1)C(N)=O (stereo partly drawn) [HT-54, D-Trp-Met(O)-Asp-Phe(4-I)-NH2]
 | 23.63% |  | CS(=O)(=O)CC[C@H](NC(=O)[C@H](N)Cc1c[nH]c2ccccc12)C(=O)N[C@@H](CC(=O)O)C(=O)N[C@@H](Cc1ccccc1[N+](=O)[O-])C(N)=O [HT-58, D-Trp-Met(O2)-Asp-Phe(2-NO2)-NH2]
 | 4.26% | 4.37 µM | CS(=O)(=O)CC[C@H](NC(=O)[C@H](N)Cc1c[nH]c2ccccc12)C(=O)N[C@@H](CC(=O)O)C(=O)N[C@@H](Cc1cccc(I)c1)C(N)=O [HT-62, D-Trp-Met(O2)-Asp-Phe(3-I)-NH2]
 | 17.43% |  | Cc1ccc(C[C@H](NC(=O)[C@H](CC(=O)O)NC(=O)[C@H](CCS(C)(=O)=O)NC(=O)[C@H](N)Cc2c[nH]c3ccccc23)C(N)=O)cc1 [HT-64, D-Trp-Met(O2)-Asp-Phe(4-Me)-NH2]
 | 0.33% |  | CS(=O)(=O)CC[C@H](NC(=O)[C@H](N)Cc1c[nH]c2ccccc12)C(=O)N[C@@H](CC(=O)O)C(=O)N[C@@H](Cc1ccc(C#N)cc1)C(N)=O [HT-66, D-Trp-Met(O2)-Asp-Phe(4-CN)-NH2]
 | −1.49% |  | CS(=O)(=O)CC[C@H](NC(=O)[C@H](N)Cc1c[nH]c2ccccc12)C(=O)N[C@@H](CC(=O)O)C(=O)N[C@@H](Cc1ccc([N+](=O)[O-])cc1)C(N)=O [HT-67, D-Trp-Met(O2)-Asp-Phe(4-NO2)-NH2]
 | 15.61% |  | CS(=O)(=O)CC[C@H](NC(=O)[C@H](N)Cc1c[nH]c2ccccc12)C(=O)N[C@@H](CC(=O)O)C(=O)N[C@@H](Cc1ccc(Br)cc1)C(N)=O [HT-68, D-Trp-Met(O2)-Asp-Phe(4-Br)-NH2]
 | 20.02% |  | CS(=O)(=O)CC[C@H](NC(=O)[C@H](N)Cc1c[nH]c2ccccc12)C(=O)N[C@@H](CC(=O)O)C(=O)N[C@@H](Cc1ccc(Cl)cc1)C(N)=O [HT-69, D-Trp-Met(O2)-Asp-Phe(4-Cl)-NH2]
 | 35.31% | 11.4 µM | CS(=O)(=O)CC[C@H](NC(=O)[C@H](N)Cc1c[nH]c2ccccc12)C(=O)N[C@@H](CC(=O)O)C(=O)N[C@@H](Cc1ccc(F)cc1)C(N)=O [HT-70, D-Trp-Met(O2)-Asp-Phe(4-F)-NH2]
 | 13.13% |  | CS(=O)(=O)CC[C@H](NC(=O)[C@H](N)Cc1c[nH]c2ccccc12)C(=O)N[C@@H](CC(=O)O)C(=O)N[C@@H](Cc1ccc(I)cc1)C(N)=O [HT-71, D-Trp-Met(O2)-Asp-Phe(4-I)-NH2]
